Reference: US7189679B2, “Herbicidal 3-amino-2-thiomethylbenzoylpyrazoles” (Bayer CropScience GmbH, priority 2004, dated 2007)

Key:
Type in all cases: in vivo
Setaria viridis = assay: Post-emergence herbicidal action against weed plants; conditions: three-leaf stage, 320 g/ha, scored after 3 to 4 weeks
Procedure: (§1) Seeds of mono- and dicotyledonous weed plants are placed in sandy loam in cardboard pots, covered with soil and grown in the greenhouse under good growth conditions. Two to three weeks after sowing, the test plants are treated at the three-leaf stage. The compounds according to the invention, formulated as wettable powders or as emulsifiable concentrates, are sprayed at various dosages onto the surface of the green plant parts at an application rate of 600 to 800 l of water per ha (converted). After the test plants have been left to stand in the greenhouse for 3 to 4 weeks under optimal growth conditions, the effect of the compounds is scored.

Amaranthus retroflexus = assay: as above; conditions: three-leaf stage, 320 g/ha, scored after 3 to 4 weeks
Procedure: as §1

Stellaria media = assay: as above; conditions: three-leaf stage, 320 g/ha, scored after 3 to 4 weeks
Procedure: as §1

Fallopia convolvulus = assay: as above; conditions: three-leaf stage, 320 g/ha, scored after 3 to 4 weeks
Procedure: as §1

Chenopodium album = assay: as above; conditions: three-leaf stage, 320 g/ha, scored after 3 to 4 weeks
Procedure: as §1

Sinapis arvensis = assay: as above; conditions: three-leaf stage, 320 g/ha, scored after 3 to 4 weeks
Procedure: as §1

Echinochloa crus-galli [1] = assay: as above; conditions: three-leaf stage, 320 g/ha, scored after 3 to 4 weeks
Procedure: as §1

Echinochloa crus-galli [2] = assay: Crop plant tolerance test, action against weed plants; conditions: 100 g/ha, visual scoring four to five weeks after application
Procedure: as §1
(§2) In further greenhouse experiments, seeds of barley and of monocotyledonous and dicotyledonous weed plants are placed in sandy loam, covered with soil and placed in the greenhouse until the plants have developed two to three true leaves. Then they are treated with the compounds of the formula (I) according to the invention, as described above in section 2.

Cyperus serotinus = assay: as above; conditions: 100 g/ha, visual scoring four to five weeks after application
Procedure: as §1, with “After the test plants have been left to stand in the greenhouse for 3 to 4 weeks under optimal growth conditions, the effect of the compounds is scored.” left out
as §2

Scirpus juncoides = assay: as above; conditions: 100 g/ha, visual scoring four to five weeks after application
Procedure: as §1, with “After the test plants have been left to stand in the greenhouse for 3 to 4 weeks under optimal growth conditions, the effect of the compounds is scored.” left out
as §2

Sagittaria pygmaea = assay: as above; conditions: 100 g/ha, visual scoring four to five weeks after application
Procedure: as §1, with “After the test plants have been left to stand in the greenhouse for 3 to 4 weeks under optimal growth conditions, the effect of the compounds is scored.” left out
as §2

rice = assay: Crop plant tolerance test, damage to crop plant; conditions: 100 g/ha, visual scoring four to five weeks after application

Row | SMILES | activity against Setaria viridis (Setaria viridis) | activity against Amaranthus retroflexus (Amaranthus retroflexus) | activity against Stellaria media (Stellaria media) | activity against Fallopia convolvulus (Fallopia convolvulus) | activity against Chenopodium album (Chenopodium album) | activity against Sinapis arvensis (Sinapis arvensis) | activity against Echinochloa crus-galli (Echinochloa crus-galli [1]) | action against Echinochloa crus-galli (Echinochloa crus-galli [2]) | action against Cyperus serotinus (Cyperus serotinus) | action against Scirpus juncoides (Scirpus juncoides) | action against Sagittaria pygmaea (Sagittaria pygmaea) | damage to the crop plant rice (rice)
1 | CCCS(=O)(=O)Oc1c(C(=O)c2ccc(Br)c(N)c2CS(C)(=O)=O)c(C)nn1C [compound 4] | at least 90% | at least 90% | at least 90% | at least 90% | at least 90% | at least 90% | at least 90% |  |  |  |  | 
2 | CCn1ncc(C(=O)c2ccc(Br)c(N)c2CS(C)(=O)=O)c1O [compound 6] |  |  |  |  |  |  |  | at least 95% | at least 95% | at least 95% | at least 95% | no damage
